According to patent US12358983B2, “Combination of anti CD19 antibody with a BCL-2 inhibitor and uses thereof” (Incyte Corporation, priority 2016, dated 2025):
Marks after values point to notes of the source that are not given here.

Tests used:
[1] = tested on: MEC-1 cells; test: Cytotoxicity (ADCC assay with NK effector cells) of MOR00208 and venetoclax alone and in combination in MEC-1 cells; type: cell-based
From the text: Cell lines tested: MEC-1 cells (DSMZ# ACC497). Culture conditions of cell lines used are according to supplier's information. Cell Medium: lscove's Modified Dulbecco's Medium (IMDM), Invitrogen, Cat No.: 31980; RPMI1640, Invitrogen, Cat No.: 31870; GlutaMAX, Invitrogen, CAT No.: 35050; FCS: Sigma CAT No.: F7524 LOT No.: 111M3396. NKs: RPMI1640, with GlutaMAX, Invitrogen, Cat No.: 31870, 10% FCS; Biocoll: Biochrome AG CAT No.: L6115 LOT No.: 0034D; MACS NK cell isolation kit: Miltenyi Biotec CAT No.: 130-092-657 LOT No.: 5150402327; venetoclax: Selleck Chem. CAT No.: S8048 LOT No.: S804803; FCS: Sigma CAT No.: F7524 LOT No.: 111M3396; and RefmAb33 (anti-RSV) with same Fc region as MOR00208.
The cytotoxic potential of MOR00208 and venetoclax alone and in combination were tested in the MEC-1 cell line (CLL). Target cell killing is measured using the following parameters: venetoclax mono treatment at concentrations of 3 μM, 6.5 μM, and 10 μM; MOR00208 mono treatment at concentrations of 0.01 pM, 0.1 pM, 1 pM, 10 pM, 100 pM and 10 nM, and the combination treatment of the listed venetoclax and MOR00208 concentrations. The following are used as controls: RefnnAb33, NK cells alone, MEC-1 cells alone or DMSO. In the venetoclax mono groups as well as in the MOR00208+venetoclax combination groups, target cells were pretreated with venetoclax or with DMSO control for 24 hours followed by removal of the dead cells prior to the ADCC assay. A dead cell removal kit was used to remove cells killed by the cytotoxic effect of venetoclax. The dead cell removal kit was implemented to mimick the removal of dead cells that also occurs in vivo and to prevent false negative interference of the dead cells with the subsequent ADCC assay. For the ADCC assay, target cells are counted and stained using CFSE at a final concentration of 1 μg/mL. For the control group, i.e. DMSO treated target cells, the effector: target (E:T) cell ratio was adjusted to 2:1, i.e. 1×10E6/nnL effector cells (NK cells) and 5×10E5/mL target cells (MEC-1 cells). […] The ADCC assays were performed as follows: using 96 well plates, 100 μL of MEC-1 target cell suspension was added per well, followed by 100 μL NK effector cell suspension per well. Mixed cell suspensions were centrifuged and resuspended in 100 μL antibody containing medium or the according control solution. The antibodies were diluted in a range of 10 nM-0.01 pM (corresponds to 1.5 μg/mL-1.5 pg/mL) in medium. The ADCC assays were incubated for 2 hours in a CO2-incubator at 37° C. After 10 minutes incubation on ice, 50 μL DAPI solution was added to each well (final concentration 1 μg/mL) and incubated for additional 10 minutes on ice. The ADCC measurements were performed on a BD FACSVerse instrument. Dead target cells were identified as DAPI positive cells.
Combination Index (CI) calculations are completed in order to determine synergy of the combination of the exemplified anti-CD19 antibody and venetoclax as compared to MOR00208 and venetoclax alone. Such calculations are described in Ting-Chao Chou, Theoretical Basis, Experimental Design, and Computerized Simulation of Synergism and Antagonism in Drug Combination Studies, Pharmacol Rev 58:621-681 (2006), which is incorporated by reference in its entirety and Chou TC, Talalay P, Quantitative analysis of dose-effect relationships: the combined effects of multiple drugs or enzyme inhibitors. Adv Enzyme Regul 22: 27-55 (1984), which is incorporated by reference in its entirety. The methods of Chou-Talalay are carried out using the CI-isobol method.
The median-effect equation models the effect of an inhibitor (such as a drug) as Fa/Fu=(D/D50)^m, where D is the dose, Fa and Fu is the fraction of the system affected and unaffected by the dose D (Fa+Fu=1); D50 is the dose producing the median effect (e.g. IC50, ED50, LD50). The constant m determines the shape of the dose-effect curve.

[2] = tested on: TOLEDO human lymphoma cell tumors; test: Subcutaneous human lymphoma cell xenograft model in SCID mice; settings: for Median Survival (Days Post-Randomization): humane endpoint tumor volume 2000 mm3; for Median % Increase in Doubling Time (IDT) / Median % Increase in Lifespan (ILS): vs. PEP/PBS Control
Protocol: Toledo cell line and culture medium were purchased and provided by Oncodesign. […] The cells are adherent to plastic flasks.
A statistical test (analysis of variance, ANOVA) was performed to test for homogeneity between groups. MOR208 was injected intraperitoneally (IP) into the peritoneal cavity of mice. Combined substance was administered by oral gavage (per os, PO) via a gavage tube.
The treatment schedule initiated at D23 was as follows:
Animals from group 1 received one daily PO administration of PEP and one IP injection twice a week of PBS.
Animals from group 4 received one IP injection of MOR208 at 11 mg/kg/inj on D23, D27, D30, D34, D37 and D41 followed by a single IP injection of MOR208 at 11 mg/kg/inj on D48 (twice a week).
The viability and behavior were recorded every day. Body weights and tumor volume were measured twice a week. The length and width of the tumor were measured twice a week with calipers and the volume of the tumor was estimated by the formula:

CC1(C)CCC(CN2CCN(c3ccc(C(=O)NS(=O)(=O)c4ccc(NCC5CCOCC5)c([N+](=O)[O-])c4)c(Oc4cnc5[nH]ccc5c4)c3)CC2)=C(c2ccc(Cl)cc2)C1 [Venetoclax, 4-(4-{[2-(4-Chlorophenyl)-4,4-dimethyl-1-cyclohexen-1-yl]methyl}-1-piperazinyl)-N-({3-nitro-4-[(tetrahydro-2H-pyran-4-ylmethyl)amino]phenyl}sulfonyl)-2-(1H-pyrrolo[2,3-b]pyridin-5-yloxy)benzamide, reference compound]
Theoretical Venetoclax Dose ([1]; Exp 1, same effect as MOR00208 1.50E+00 μg/mL + venetoclax 3.0 μM): 16.0 µM
Theoretical Venetoclax Dose ([1]; Exp 1, same effect as MOR00208 1.50E+00 μg/mL + venetoclax 6.5 μM): 23.9 µM
Theoretical Venetoclax Dose ([1]; Exp 1, same effect as MOR00208 1.50E+00 μg/mL + venetoclax 10.0 μM): 28.4 µM
Theoretical Venetoclax Dose ([1]; Exp 1, same effect as MOR00208 1.50E−02 μg/mL + venetoclax 3.0 μM): 15.1 µM
Theoretical Venetoclax Dose ([1]; Exp 1, same effect as MOR00208 1.50E−02 μg/mL + venetoclax 6.5 μM): 21.9 µM
Theoretical Venetoclax Dose ([1]; Exp 1, same effect as MOR00208 1.50E−02 μg/mL + venetoclax 10.0 μM): 23.0 µM
Theoretical Venetoclax Dose ([1]; Exp 1, same effect as MOR00208 1.50E−03 μg/mL + venetoclax 3.0 μM): 10.4 µM
Theoretical Venetoclax Dose ([1]; Exp 1, same effect as MOR00208 1.50E−03 μg/mL + venetoclax 6.5 μM): 12.7 µM
Theoretical Venetoclax Dose ([1]; Exp 1, same effect as MOR00208 1.50E−03 μg/mL + venetoclax 10.0 μM): 14.0 µM
Theoretical Venetoclax Dose ([1]; Exp 1, same effect as MOR00208 1.50E−04 μg/mL + venetoclax 3.0 μM): 7.2 µM
Theoretical Venetoclax Dose ([1]; Exp 1, same effect as MOR00208 1.50E−04 μg/mL + venetoclax 6.5 μM): 8.5 µM
Theoretical Venetoclax Dose ([1]; Exp 1, same effect as MOR00208 1.50E−04 μg/mL + venetoclax 10.0 μM): 8.9 µM
Theoretical Venetoclax Dose ([1]; Exp 1, same effect as MOR00208 1.50E−05 μg/mL + venetoclax 3.0 μM): 6.3 µM
Theoretical Venetoclax Dose ([1]; Exp 1, same effect as MOR00208 1.50E−05 μg/mL + venetoclax 6.5 μM): 6.9 µM
Theoretical Venetoclax Dose ([1]; Exp 1, same effect as MOR00208 1.50E−05 μg/mL + venetoclax 10.0 μM): 7.4 µM
Theoretical Venetoclax Dose ([1]; Exp 1, same effect as MOR00208 1.50E−06 μg/mL + venetoclax 10.0 μM): 6.4 µM
Actual Venetoclax Effect ([1]; Exp 1, venetoclax 3.0 μM): 8.9 % dead cells
Actual Venetoclax Effect ([1]; Exp 1, venetoclax 6.5 μM): 17.7 % dead cells
Actual Venetoclax Effect ([1]; Exp 1, venetoclax 10.0 μM): 38.8 % dead cells
Theoretical Venetoclax Dose ([1]; Exp 2, same effect as MOR00208 1.50E+00 μg/mL + venetoclax 3.0 μM): 11.2 µM
Theoretical Venetoclax Dose ([1]; Exp 2, same effect as MOR00208 1.50E+00 μg/mL + venetoclax 6.5 μM): 12.5 µM
Theoretical Venetoclax Dose ([1]; Exp 2, same effect as MOR00208 1.50E+00 μg/mL + venetoclax 10.0 μM): 17.6 µM
Theoretical Venetoclax Dose ([1]; Exp 2, same effect as MOR00208 1.50E−02 μg/mL + venetoclax 3.0 μM): 10.6 µM
Theoretical Venetoclax Dose ([1]; Exp 2, same effect as MOR00208 1.50E−02 μg/mL + venetoclax 6.5 μM): 11.9 µM
Theoretical Venetoclax Dose ([1]; Exp 2, same effect as MOR00208 1.50E−02 μg/mL + venetoclax 10.0 μM): 15.0 µM
Theoretical Venetoclax Dose ([1]; Exp 2, same effect as MOR00208 1.50E−03 μg/mL + venetoclax 3.0 μM): 8.6 µM
Theoretical Venetoclax Dose ([1]; Exp 2, same effect as MOR00208 1.50E−03 μg/mL + venetoclax 6.5 μM): 9.4 µM
Theoretical Venetoclax Dose ([1]; Exp 2, same effect as MOR00208 1.50E−03 μg/mL + venetoclax 10.0 μM): 11.3 µM
Theoretical Venetoclax Dose ([1]; Exp 2, same effect as MOR00208 1.50E−04 μg/mL + venetoclax 3.0 μM): 7.3 µM
Theoretical Venetoclax Dose ([1]; Exp 2, same effect as MOR00208 1.50E−04 μg/mL + venetoclax 6.5 μM): 7.9 µM
Theoretical Venetoclax Dose ([1]; Exp 2, same effect as MOR00208 1.50E−04 μg/mL + venetoclax 10.0 μM): 8.8 µM
Theoretical Venetoclax Dose ([1]; Exp 2, same effect as MOR00208 1.50E−05 μg/mL + venetoclax 3.0 μM): 6.6 µM
Theoretical Venetoclax Dose ([1]; Exp 2, same effect as MOR00208 1.50E−05 μg/mL + venetoclax 6.5 μM): 7.1 µM
Theoretical Venetoclax Dose ([1]; Exp 2, same effect as MOR00208 1.50E−05 μg/mL + venetoclax 10.0 μM): 8.0 µM
Theoretical Venetoclax Dose ([1]; Exp 2, same effect as MOR00208 1.50E−06 μg/mL + venetoclax 6.5 μM): 6.7 µM
Theoretical Venetoclax Dose ([1]; Exp 2, same effect as MOR00208 1.50E−06 μg/mL + venetoclax 10.0 μM): 7.2 µM
Actual Venetoclax Effect ([1]; Exp 2, venetoclax 3.0 μM): 19.9 % dead cells
Actual Venetoclax Effect ([1]; Exp 2, venetoclax 6.5 μM): 32.4 % dead cells
Actual Venetoclax Effect ([1]; Exp 2, venetoclax 10.0 μM): 73.9 % dead cells
Theoretical Venetoclax Dose ([1]; Exp 3, same effect as MOR00208 1.50E+00 μg/mL + venetoclax 3.0 μM): 16.6 µM
Theoretical Venetoclax Dose ([1]; Exp 3, same effect as MOR00208 1.50E+00 μg/mL + venetoclax 6.5 μM): 29.4 µM
Theoretical Venetoclax Dose ([1]; Exp 3, same effect as MOR00208 1.50E+00 μg/mL + venetoclax 10.0 μM): 31.0 µM
Theoretical Venetoclax Dose ([1]; Exp 3, same effect as MOR00208 1.50E−02 μg/mL + venetoclax 3.0 μM): 15.4 µM
Theoretical Venetoclax Dose ([1]; Exp 3, same effect as MOR00208 1.50E−02 μg/mL + venetoclax 6.5 μM): 22.3 µM
Theoretical Venetoclax Dose ([1]; Exp 3, same effect as MOR00208 1.50E−02 μg/mL + venetoclax 10.0 μM): 31.0 µM
Theoretical Venetoclax Dose ([1]; Exp 3, same effect as MOR00208 1.50E−03 μg/mL + venetoclax 3.0 μM): 10.2 µM
Theoretical Venetoclax Dose ([1]; Exp 3, same effect as MOR00208 1.50E−03 μg/mL + venetoclax 6.5 μM): 12.2 µM
Theoretical Venetoclax Dose ([1]; Exp 3, same effect as MOR00208 1.50E−03 μg/mL + venetoclax 10.0 μM): 18.4 µM
Theoretical Venetoclax Dose ([1]; Exp 3, same effect as MOR00208 1.50E−04 μg/mL + venetoclax 3.0 μM): 7.9 µM
Theoretical Venetoclax Dose ([1]; Exp 3, same effect as MOR00208 1.50E−04 μg/mL + venetoclax 6.5 μM): 9.0 µM
Theoretical Venetoclax Dose ([1]; Exp 3, same effect as MOR00208 1.50E−04 μg/mL + venetoclax 10.0 μM): 11.6 µM
Theoretical Venetoclax Dose ([1]; Exp 3, same effect as MOR00208 1.50E−05 μg/mL + venetoclax 3.0 μM): 6.4 µM
Theoretical Venetoclax Dose ([1]; Exp 3, same effect as MOR00208 1.50E−05 μg/mL + venetoclax 6.5 μM): 7.5 µM
Theoretical Venetoclax Dose ([1]; Exp 3, same effect as MOR00208 1.50E−05 μg/mL + venetoclax 10.0 μM): 9.6 µM
Theoretical Venetoclax Dose ([1]; Exp 3, same effect as MOR00208 1.50E−06 μg/mL + venetoclax 6.5 μM): 6.4 µM
Theoretical Venetoclax Dose ([1]; Exp 3, same effect as MOR00208 1.50E−06 μg/mL + venetoclax 10.0 μM): 8.4 µM
Actual Venetoclax Effect ([1]; Exp 3, venetoclax 3.0 μM): 7.7 % dead cells
Actual Venetoclax Effect ([1]; Exp 3, venetoclax 6.5 μM): 16.3 % dead cells
Actual Venetoclax Effect ([1]; Exp 3, venetoclax 10.0 μM): 48.1 % dead cells
Median Tumor Doubling Time ([2]; ABT-199 20 mg/kg p.o. daily): 9.6^a Days
Median Survival (Days Post-Randomization) ([2]; ABT-199 20 mg/kg p.o. daily): 30.0^a Days
Median % Increase in Doubling Time (IDT) ([2]; ABT-199 20 mg/kg p.o. daily): 44%
Median % Increase in Lifespan (ILS) ([2]; ABT-199 20 mg/kg p.o. daily): 43%
Median Tumor Doubling Time ([2]; ABT-199 40 mg/kg p.o. daily): 11.1^a Days
Median Survival (Days Post-Randomization) ([2]; ABT-199 40 mg/kg p.o. daily): 36.2^a Days
Median % Increase in Doubling Time (IDT) ([2]; ABT-199 40 mg/kg p.o. daily): 64%
Median % Increase in Lifespan (ILS) ([2]; ABT-199 40 mg/kg p.o. daily): 72%
